Laboratory results reported in ChEMBL document CHEMBL1201862, “PubChem BioAssay data set” (2004).
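Results reflect a 48-hour exposure of cells in 96-well plates to compound at five concentrations. Here, GI50 denotes the concentration required for 50% inhibition of growth.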 Activity calls are given as the source filed them. Rule as the data show it: active = GI50 up to about 1.1 µM and inactive = higher.

Tests used:
Experiment in all cases: DTP human tumour cell line panel, 48 h
SK-MEL-2 = system: SK-MEL-2
OVCAR-5 = system: OVCAR-5
A498 = system: A498
SN12C = system: SN12C
DU-145 = system: DU-145
T47D = system: T47D
HOP-92 = system: HOP-92
786-0 = system: 786-0
M14 = system: M14
NCI-H460 = system: NCI-H460
SW-620 = system: SW-620
NCI-H23 = system: NCI-H23
NCI/ADR-RES = system: NCI/ADR-RES
BT-549 = system: BT-549
IGROV-1 = system: IGROV-1
OVCAR-8 = system: OVCAR-8
MDA-MB-231 = system: MDA-MB-231
COLO 205 = system: COLO 205
HOP-62 = system: HOP-62
U-251 = system: U-251

Measured: GI50

c1ccc2cc(NCNc3ccc4ccccc4c3)ccc2c1
inactive: SK-MEL-2 8.17 µM | OVCAR-5 21.3 µM | A498 19.9 µM | SN12C 9.53 µM | DU-145 14.4 µM | T47D 15.7 µM | HOP-92 1.27 µM | 786-0 17.3 µM | M14 15.5 µM | NCI-H460 13.4 µM | SW-620 34.2 µM | NCI-H23 12.2 µM | NCI/ADR-RES 21.7 µM | BT-549 24.9 µM | IGROV-1 7.52 µM | OVCAR-8 17.5 µM | MDA-MB-231 2.51 µM | COLO 205 18.8 µM | HOP-62 19.5 µM | U-251 23.3 µM

Nc1ccn(C2CCC(CO)O2)c(=O)n1 (stereo not given)
inactive: SK-MEL-2 > 100 µM | OVCAR-5 > 100 µM | A498 > 91.8 µM | SN12C > 100 µM | DU-145 719 µM | T47D > 1000 µM | HOP-92 > 100 µM | 786-0 > 1000 µM | M14 > 1000 µM | NCI-H460 > 100 µM | SW-620 > 94.8 µM | NCI-H23 > 100 µM | NCI/ADR-RES 159 µM | BT-549 > 1000 µM | IGROV-1 > 100 µM | OVCAR-8 156 µM | MDA-MB-231 > 1000 µM | COLO 205 > 100 µM | HOP-62 > 100 µM | U-251 > 100 µM

CN(C)CC1CCC/C(=C\c2ccc(OC(=O)/C=C/c3ccc(Cl)cc3)cc2)C1=O (stereo not given)
active: 786-0 1.07 µM | BT-549 0.217 µM | COLO 205 0.78 µM
inactive: SK-MEL-2 9.82 µM | OVCAR-5 16.7 µM | A498 8.53 µM | SN12C 3.92 µM | DU-145 5.2 µM | T47D 1.15 µM | HOP-92 1.57 µM | M14 6.1 µM | NCI-H460 8.02 µM | SW-620 1.69 µM | NCI-H23 6.65 µM | NCI/ADR-RES 7.43 µM | IGROV-1 1.43 µM | OVCAR-8 5.62 µM | MDA-MB-231 5.21 µM | HOP-62 6.25 µM | U-251 3.13 µM

Cc1ccc(OCC2OC(n3cnc4nc(Cl)nc(Cl)c43)CC2Oc2ccc(C)cc2)cc1 (stereo not given)
inactive: SK-MEL-2 4.98 µM | OVCAR-5 17.2 µM | A498 22.4 µM | SN12C 7.31 µM | DU-145 12.9 µM | T47D 6.19 µM | HOP-92 2.69 µM | 786-0 5.25 µM | M14 6.35 µM | NCI-H460 6.55 µM | SW-620 3.76 µM | NCI-H23 7.71 µM | NCI/ADR-RES 15.3 µM | BT-549 9.51 µM | IGROV-1 5.36 µM | OVCAR-8 13.1 µM | MDA-MB-231 2.51 µM | COLO 205 9.25 µM | HOP-62 16.3 µM | U-251 11.1 µM

CC(C)(Br)C(=O)C(Br)Br
inactive: SK-MEL-2 13 µM | OVCAR-5 16.8 µM | A498 > 39.8 µM | SN12C > 24.4 µM | DU-145 33.7 µM | T47D 6.22 µM | HOP-92 1.7 µM | 786-0 13.8 µM | M14 2.44 µM | NCI-H460 18.1 µM | SW-620 1.89 µM | NCI-H23 4.61 µM | NCI/ADR-RES 4.82 µM | BT-549 4.9 µM | IGROV-1 8.22 µM | OVCAR-8 5.27 µM | MDA-MB-231 5.56 µM | COLO 205 2.74 µM | HOP-62 > 42.3 µM | U-251 > 28 µM

COc1ccc(-n2cnc3c(NC(CCSC)C(=O)O)ncnc32)cc1 (stereo not given)
inactive: SK-MEL-2 > 100 µM | OVCAR-5 > 100 µM | A498 > 100 µM | SN12C > 100 µM | DU-145 > 100 µM | T47D > 100 µM | HOP-92 74.1 µM | 786-0 > 100 µM | M14 > 100 µM | NCI-H460 > 100 µM | SW-620 > 100 µM | NCI-H23 > 100 µM | NCI/ADR-RES > 100 µM | BT-549 > 100 µM | IGROV-1 > 100 µM | OVCAR-8 > 100 µM | MDA-MB-231 > 100 µM | COLO 205 > 100 µM | HOP-62 > 100 µM | U-251 > 100 µM

O=C1c2ccccc2NC(=S)[C@@H]2CCCN12
inactive: SK-MEL-2 > 100 µM | OVCAR-5 > 100 µM | A498 > 100 µM | SN12C > 100 µM | DU-145 > 100 µM | T47D > 100 µM | HOP-92 > 100 µM | 786-0 > 100 µM | M14 > 100 µM | NCI-H460 > 100 µM | SW-620 > 100 µM | NCI-H23 > 100 µM | NCI/ADR-RES > 100 µM | BT-549 > 100 µM | IGROV-1 > 100 µM | OVCAR-8 > 100 µM | MDA-MB-231 > 100 µM | COLO 205 > 100 µM | HOP-62 > 100 µM | U-251 > 100 µM

C=CCSc1nc2c(N)ncnc2n1C1OC(CO)C(O)C1O (stereo not given)
inactive: SK-MEL-2 > 100 µM | OVCAR-5 > 100 µM | A498 > 100 µM | SN12C > 100 µM | DU-145 > 100 µM | T47D > 100 µM | HOP-92 > 100 µM | 786-0 > 100 µM | M14 > 100 µM | NCI-H460 > 100 µM | SW-620 > 100 µM | NCI-H23 > 100 µM | NCI/ADR-RES > 100 µM | BT-549 > 100 µM | IGROV-1 > 100 µM | OVCAR-8 > 100 µM | MDA-MB-231 > 100 µM | COLO 205 > 100 µM | HOP-62 > 100 µM | U-251 > 100 µM

CCC1(c2ccc(N3C(=O)c4cccc5cc([N+](=O)[O-])cc(c45)C3=O)cc2)CCC(=O)NC1=O (stereo not given)
inactive: SK-MEL-2 > 100 µM | OVCAR-5 60.8 µM | A498 10.1 µM | SN12C 6.05 µM | DU-145 > 44.9 µM | T47D 24.4 µM | HOP-92 2.16 µM | 786-0 7.38 µM | M14 61.5 µM | NCI-H460 6.35 µM | SW-620 11.4 µM | NCI-H23 25.5 µM | NCI/ADR-RES 17 µM | BT-549 13.5 µM | IGROV-1 5.4 µM | OVCAR-8 12 µM | MDA-MB-231 5.16 µM | COLO 205 9.57 µM | HOP-62 9.12 µM | U-251 9.84 µM

N#Cc1ccc(Nc2nc3[nH]cnc3c(=O)[nH]2)cc1
inactive: SK-MEL-2 > 100 µM | OVCAR-5 > 100 µM | A498 > 100 µM | SN12C > 100 µM | DU-145 > 100 µM | T47D > 100 µM | HOP-92 > 100 µM | 786-0 > 100 µM | M14 > 100 µM | NCI-H460 > 100 µM | SW-620 > 100 µM | NCI-H23 > 100 µM | NCI/ADR-RES > 100 µM | BT-549 > 100 µM | IGROV-1 > 100 µM | OVCAR-8 > 100 µM | MDA-MB-231 > 100 µM | COLO 205 > 100 µM | HOP-62 > 100 µM | U-251 > 100 µM

N#Cc1c(-c2ccc([N+](=O)[O-])cc2)c2c([nH]c1=O)-c1ccccc1CCC2
inactive: SK-MEL-2 97.9 µM | OVCAR-5 > 100 µM | A498 46.3 µM | SN12C > 100 µM | DU-145 28.1 µM | T47D 21.5 µM | HOP-92 1.48 µM | 786-0 > 100 µM | M14 > 100 µM | NCI-H460 51.1 µM | SW-620 63.5 µM | NCI-H23 > 100 µM | NCI/ADR-RES 50.5 µM | BT-549 24.9 µM | IGROV-1 46.8 µM | OVCAR-8 55.3 µM | MDA-MB-231 > 100 µM | COLO 205 83.9 µM | HOP-62 40.5 µM | U-251 52.5 µM

CN(C)c1ccc(/C=C2\N=C(N/N=C/c3ccc(N(C)C)cc3)NC2=O)cc1
inactive: SK-MEL-2 > 100 µM | OVCAR-5 > 100 µM | A498 26.8 µM | SN12C > 100 µM | DU-145 28.1 µM | T47D 16.7 µM | HOP-92 25.5 µM | 786-0 > 100 µM | M14 88.7 µM | NCI-H460 51.5 µM | SW-620 > 100 µM | NCI-H23 > 100 µM | NCI/ADR-RES > 100 µM | BT-549 > 100 µM | IGROV-1 38.7 µM | OVCAR-8 24.8 µM | MDA-MB-231 31.4 µM | COLO 205 22.8 µM | HOP-62 > 100 µM | U-251 52.1 µM

Nc1ccc(CCSSCCc2ccc(N)cc2)cc1
inactive: SK-MEL-2 20.2 µM | OVCAR-5 29.6 µM | A498 32.1 µM | SN12C 22.9 µM | DU-145 28.3 µM | T47D 35.6 µM | HOP-92 34.5 µM | 786-0 17 µM | M14 30 µM | NCI-H460 25.7 µM | SW-620 30 µM | NCI-H23 29.7 µM | NCI/ADR-RES 23.2 µM | BT-549 25.5 µM | IGROV-1 37.1 µM | OVCAR-8 28 µM | MDA-MB-231 39.3 µM | COLO 205 41.1 µM | HOP-62 55.2 µM | U-251 19.6 µM

C=CCSC1=N/C(=C\c2ccc(OC)cc2)C(=O)N1CC=C
inactive: SK-MEL-2 29.6 µM | OVCAR-5 57.8 µM | A498 14.9 µM | SN12C 24.1 µM | DU-145 42.2 µM | T47D 16.2 µM | HOP-92 28.8 µM | 786-0 25.5 µM | M14 36.7 µM | NCI-H460 27.6 µM | SW-620 35.2 µM | NCI-H23 28.4 µM | NCI/ADR-RES 27.6 µM | BT-549 27 µM | IGROV-1 > 100 µM | OVCAR-8 36.2 µM | MDA-MB-231 37.2 µM | COLO 205 20.4 µM | HOP-62 74.6 µM | U-251 24.3 µM
